Experimental data taken from patent US5043332A, “Novel 11β-substituted -19-nor-steriods” (priority 1981, dated 1991).

What was measured:
[1] = target: T1, Androgen receptor of prostate of rats (Rattus norvegicus, UniProt P15207); assay: Androgen receptor binding (displacement of tritiated product P); details: for affinity for androgen receptors (in words): conclusion
T1 construct: The prostates were removed, weighed and homogenized at 0° C; from tissue; host or cells: rat prostate, 105,000 g supernatant (castrated male Sprague-Dawley rats)
T1 sequence (P15207 1-902): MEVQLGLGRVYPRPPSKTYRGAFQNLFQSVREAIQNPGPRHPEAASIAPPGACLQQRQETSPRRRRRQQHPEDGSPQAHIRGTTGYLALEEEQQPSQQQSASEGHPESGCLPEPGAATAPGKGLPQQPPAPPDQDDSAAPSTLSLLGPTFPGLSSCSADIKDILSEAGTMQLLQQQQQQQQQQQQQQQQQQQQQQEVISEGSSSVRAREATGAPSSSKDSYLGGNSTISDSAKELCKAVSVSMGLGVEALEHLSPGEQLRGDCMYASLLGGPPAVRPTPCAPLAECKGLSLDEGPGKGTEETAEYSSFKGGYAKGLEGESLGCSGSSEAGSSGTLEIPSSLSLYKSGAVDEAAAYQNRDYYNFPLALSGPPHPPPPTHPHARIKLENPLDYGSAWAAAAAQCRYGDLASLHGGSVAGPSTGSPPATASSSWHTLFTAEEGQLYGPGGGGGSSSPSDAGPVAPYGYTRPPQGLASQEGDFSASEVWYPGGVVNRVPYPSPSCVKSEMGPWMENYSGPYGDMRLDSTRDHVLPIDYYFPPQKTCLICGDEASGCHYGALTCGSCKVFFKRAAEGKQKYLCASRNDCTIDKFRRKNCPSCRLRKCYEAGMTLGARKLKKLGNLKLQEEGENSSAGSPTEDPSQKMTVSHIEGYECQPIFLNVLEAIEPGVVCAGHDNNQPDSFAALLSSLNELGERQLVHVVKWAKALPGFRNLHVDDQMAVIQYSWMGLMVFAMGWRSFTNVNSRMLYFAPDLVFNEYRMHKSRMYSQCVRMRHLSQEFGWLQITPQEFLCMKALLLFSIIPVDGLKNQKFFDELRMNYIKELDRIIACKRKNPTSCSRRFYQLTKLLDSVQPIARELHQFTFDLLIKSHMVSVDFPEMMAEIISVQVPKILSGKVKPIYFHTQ
How it was run: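 Male Sprague-Dawley EPOS rats of 160 to 200 g were castrated and killed 24 hours later. Prostates were homogenized at 0° C. in Tris 10 mM, 0.25M saccharose, HCl buffer at pH 7.4 (1 g tissue per 5 ml) and ultracentrifuged at 105,000 g. Cytosol was incubated with tritiated product P plus increasing cold competitor (0-1,000×10^-9 M). Bound tritium was measured by carbon-dextran adsorption. ARL was derived from the 50% inhibitory concentrations of reference and test compound.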

[2] = target: T2, Gluocorticoid receptor of thymus of rats (Rattus norvegicus, UniProt P06536); assay: Glucocorticoid receptor binding (displacement of tritiated dexamethasone); details: for affinity for glucocorticoid receptors (in words): conclusion
T2 construct: The thymus were removed and homogenized at 0° C; from tissue; host or cells: rat thymus, 105,000 g supernatant (adrenalectomized male Sprague-Dawley rats)
T2 sequence (P06536 1-795): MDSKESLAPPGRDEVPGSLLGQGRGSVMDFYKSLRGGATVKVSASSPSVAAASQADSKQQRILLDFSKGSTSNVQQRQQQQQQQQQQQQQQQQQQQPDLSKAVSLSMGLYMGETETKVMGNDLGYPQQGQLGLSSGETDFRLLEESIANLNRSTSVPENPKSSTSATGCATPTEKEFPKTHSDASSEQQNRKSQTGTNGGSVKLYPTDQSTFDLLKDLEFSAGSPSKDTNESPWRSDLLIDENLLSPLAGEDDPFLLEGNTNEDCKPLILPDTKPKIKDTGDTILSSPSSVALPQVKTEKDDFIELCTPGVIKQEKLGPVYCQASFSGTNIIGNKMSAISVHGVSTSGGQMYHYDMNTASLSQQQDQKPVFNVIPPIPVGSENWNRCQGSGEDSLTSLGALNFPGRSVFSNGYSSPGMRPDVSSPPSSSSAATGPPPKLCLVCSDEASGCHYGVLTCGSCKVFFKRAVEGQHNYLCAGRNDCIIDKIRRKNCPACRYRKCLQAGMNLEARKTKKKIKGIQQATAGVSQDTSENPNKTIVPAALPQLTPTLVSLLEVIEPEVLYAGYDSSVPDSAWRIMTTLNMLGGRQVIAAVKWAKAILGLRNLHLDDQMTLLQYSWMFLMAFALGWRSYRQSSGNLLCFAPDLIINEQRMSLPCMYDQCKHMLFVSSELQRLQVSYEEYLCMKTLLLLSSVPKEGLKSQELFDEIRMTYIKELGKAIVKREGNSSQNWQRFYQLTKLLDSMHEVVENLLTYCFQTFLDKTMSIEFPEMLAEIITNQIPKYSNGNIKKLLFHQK
Description: D. Gluocorticoid receptor of thymus of rats
Male Sprague-Dawley EPOS rats weighing 160 to 200 g were surrenalectomized and the animals were killed 4 to 8 days later. The thymus were removed and homogenized at 0° C. in a buffered TS solution of 10 mM, Tris, 0.25M of Saccharose, 2 mM of dithiothreitol HCl for a pH of 7.4 using a polytetrafluoroethylene-glass Potter at a rate of 1 g of tissue per 10 ml of TS. […] The concentration of tied tritiated dexamethasone (B) was measured for each incubate by the adsorption on carbon-dextran technique.
The calculation of the relative affinity of […] (ARL) was identical for all of the above receptor tests. One traced the following two curves: the percentage of tied tritiated hormone B/T as a function of the logarithm of the cold hormone concentration and B/T as a function of the logarithm of the concentration of the cold test product. One determined the line of the equation. [formula]
The intersection of the I50 line and the curves permits one to determine the concentrations of the cold hormone of the reference (CH) and the cold test compound (CX) which inhibit by 50% the tieing of tritiated hormone with the receptor. The relative affinity of tieing (ARL) of the test product was determined by the equation: [formula]

[3] = second table, incubation 24 H at 0° C.
[4] = second table, incubation 4 H at 0° C.

| Structure (SMILES) | affinity for androgen receptors (in words) [1] | relative affinity of tieing (ARL), Androgen [1, 3] | affinity for glucocorticoid receptors (in words) [2] | relative affinity of tieing (ARL), Glucocorticoid [2, 4] | relative affinity of tieing (ARL), Glucocorticoid [2, 3] | relative affinity of tieing (ARL), Androgen ([1]; incubation 1/2H at 0° C.) | relative affinity of tieing (ARL), Androgen ([1]; incubation 24 H at 0° C.) | relative affinity of tieing (ARL), Glucocorticoid ([2]; incubation 4 H at 0° C.) | relative affinity of tieing (ARL), Glucocorticoid ([2]; incubation 24 H at 0° C.) |
| --- | --- | --- | --- | --- | --- | --- | --- | --- | --- |
| CN(C)c1ccc([C@H]2C[C@@]3(C)[C@@H](CC[C@@]3(O)C#CCl)[C@@H]3CCC4=CC(=O)CCC4=C32)cc1 [Example 25, 11β-[4-(N,N-dimethylamino)-phenyl]-21-chloro-19-nor-17α-Δ^4,9-pregnadiene-20-yne-17β-ol-3-one] | slightly moderate affinity | 32 | very remarkable affinity | 254 | 292 |  |  |  |  |
| C[C@]12C[C@H](c3ccc([N+](C)(C)[O-])cc3)C3=C4CCC(=O)C=C4CC[C@H]3[C@@H]1CC[C@@]2(O)C#CCl [Example 26, N-oxide of 11β-[4-(N,N-dimethylamino)-phenyl]-21-chloro-19-nor-17α-Δ^4,9-pregnadiene-20-yne-17β-ol-3-one] |  | 9,8 |  | 9 | 14 |  |  |  |  |
| CN(C)c1ccc([C@H]2C[C@@]3(C)[C@@H](CC[C@@]3(O)C#Cc3ccccc3)[C@@H]3CCC4=CC(=O)CCC4=C32)cc1 [Example 29, 11β-[4-(N,N-dimethylamino)-phenyl]-21-phenyl-19-nor-17α-Δ^4,9-pregnadiene-20-yne-17β-ol-3-one] |  | 0 |  | 46 | 94 |  |  |  |  |
| CC#C[C@]1(O)CC[C@H]2[C@@H]3CCC4=CC(=O)C(C#N)(C#N)CC4=C3[C@@H](c3ccc(N(C)C)cc3)C[C@@]21C [Example 9, 2,2-dicyano-11β-(4-dimethylaminophenyl)-17α-(prop-1-ynyl)-Δ^4,9-estradiene-17β-ol-3-one] |  |  |  |  |  | < 0,1 | < 0,1 | 14 | 7 |
| C=CC[C@]1(O)CC[C@H]2[C@@H]3CCC4=CC(=O)CCC4=C3[C@@H](c3ccc(N(C)C)cc3)C[C@@]21C [Example 37, 11β-[4-(N,N-dimethylamino)-phenyl]-17α-(prop-2-enyl)-Δ^4,9-estradien-17β-ol-3-one] | slightly moderate affinity | 8 | very remarkable affinity | 178 | 221 |  |  |  |  |
| C[C@]12C[C@H](c3ccc([N+](C)(C)[O-])cc3)[C@]34O[C@]35CCC(=O)C=C5CC[C@H]4[C@@H]1CC[C@@]2(O)C#CCl [Example 27, N-oxide of 11β-[4-(N,N-dimethylamino)-phenyl]-9α,10α-epoxy-21-chloro-19-nor-17α-Δ^4-pregnene-20-yne-17β-ol-3-one] |  | 2,8 |  | 5,3 | 6,2 |  |  |  |  |
